From patent US12729368B2, “Methods and compositions for generating oligodendrocyte progenitor cells” (Trailhead Biosystems Inc., priority 2022, dated 2026)
Where “and” joins values, the source holds several entries; their conditions need not be identical. Identical values can stand only once.

Assays:
[1] = tested on: cells cultured in stage 1 and stage 2 differentiation media; test: HD-DoE 8-factor model for stage 3 (version 2); type: cell-based, human; settings: for factor contribution: positive
[2] = tested on: cells cultured in stage 1 and stage 2 differentiation media; test: Two further HD-DoE models optimized for SOX10 (IGF-1, FGF-2, AGN193109); type: cell-based, human; settings: two other models optimized for SOX10
From the text: According to literature, proteins such as FGF-2, IGF-1, PDGF-AA and NT-3 play an important role in oligodendrocyte differentiation (Goldman and Kuypers (2015) Development 142:3983-95). In the first model, FGF-2 had positive regulatory impact only on the expression level of SOX10 and IGF-1 on PDGFRa. Therefore, to further understand the impact of IGF-1 and FGF-2 on differentiation of cells and confirm their positive role, we included these factors in two other models and optimized the models for maximum expression of SOX10. This gene is one of the main transcription factors of oligodendrocytes, along with OLIG2 and NKX2-2 that has shown the potential to commit the stem cells to oligodendrocytes in reprogramming efforts (Wang et al, (2014) Proc Natl Arad Sri USA 111:E2885-94; García-León et al. (2018) Stem Cell Reports 10:655-672).

[3] = tested on: human pluripotent stem cells; test: HD-DoE #2: 13-factor model, differentiation toward anterior neuroectoderm, gene expression; type: cell-based; settings: dynamic profiling analysis, 13-factor model
From the text: To further enhance the conditions for oligodendrocyte differentiation from pluripotency, we performed an additional HD-DoE experiment. We obtained additional gene regulatory models that were used for preparation of a differentiation protocol. The basis of this was a 13-factor HD-DoE experiment with focus on initiation of differentiation of cells toward anterior neuroectoderm. In this model, we focused on expression of FEZF2 and OTX2.
As shown in the results summarized in FIG. 4, the model was optimized for highest expression of OTX2 at 12755.9. According to the model of high expression of OTX2, seven effectors had positive contribution including MK2206, PD0325901, CHIR99021, LDN193189, Go6983, PD173074 and BLU9931 with highest factor contribution of 22.2 for MK2206 and lowest factor contribution of 1.7 for PD173074 and BLU9931.
As shown in the results summarized in FIG. 5, the model was optimized for highest expression of FEZF2 at 4466. When the model was optimized for maximum expression level of FEZF2, three effectors including LDN193189 with factor contribution of 19.5, PD0325901 with factor contribution of 14.6 and MK2206 with factor contribution of 12.3 were common with previous condition and three new effectors including purmorphamine-500 nM, XAV939 and SC79 were introduced.
As shown in the results summarized in FIG. 6, to fine-tune the recipe and find the optimum combination of factors for high expression of both OTX2 and FEZF2, dynamic profiling analysis was done. […] Therefore, these two factors were added to the optimized culture recipe.

pre-OPCs = test: HD-DoE second 12-factor model for stage 2 (Purmorphamine with TTNPB, Biotin, Insulin etc.); type: cell-based, human; settings: optimized for OLIG2 at 3299.4; positive impact
Method: (§1) To gain more information about the effect of Purmorphamine on differentiation of pre-OPCs to a more committed cell population, we tested this factor in two other models. In a 12-factor model, we included Purmorphamine, FGF2, AGN193109 and CHIR99021 along with 8 new inputs including TTNPB, Biotin, Insulin, propionate, DBZ, Yhhu3792, LDN193189 and Y-27632. […] In another 12-factor model, Purmorphamine was tested along with A 8301, CHIR99021, Dexamethasone, T3+T4, PD0325901, ZM336372, DBZ, BMP7, PD173074, SANT-1 and PDGF-AA.

stage 1 pre-OPCs = test: HD-DoE third 12-factor model for stage 2 (Purmorphamine with A 8301, Dexamethasone etc.); type: cell-based, human; settings: optimized for OLIG2 at 644.6; positive impact
Method: as §1

OPCs [4] = test: HD-DoE 8-factor model for stage 4 on OPCs; type: cell-based, human; settings: optimized for maximal expression of CNP at 1339; positive
Method: (§2) To engineer the recipe of stage 4 of differentiation, 48 or 96 different combinations of effectors generated using Design-of-Experiments compression through D-optimality were robotically prepared. The effector combinations were prepared in a basal media and were subsequently added to the cells, which were treated with the stage 1, stage 2 and stage 3 differentiation media as described in the earlier examples to generate OPCs. […] Solutions within the tested space could then be explored to address desirability.

OPCs [5] = test: HD-DoE 12-factor model for stage 4 on OPCs, 6 days in culture; type: cell-based, human; settings: optimized for PLP1 at 3600; negative impact
Method: as §2, with “desirability. […] Benarroch (2009) Neurology 72:1779-1785; Shi et al. (2019) Exp Ther Med, 18:1258-1266).” for “desirability.”

FGF2: FGF pathway activator, an FGFR agonist
effect on late OPC genes and neuronal genes ([1]; factor plots vs concentration): increased the expression levels of OPC genes while decreasing the expression levels of neuronal genes | factor contribution ([1]; optimized for SOX10 at 41.04): 15.3 | impact on the expression level of SOX10 [2]: positive impact

c1ccc2c(Oc3nc(Nc4ccc(N5CCOCC5)cc4)c4ncn(C5CCCCC5)c4n3)cccc2c1 [Purmorphamine]
effect on expression of FEZF2 [3]: significant positive effects | impact on expression level of OTX2 [3]: no negative impact | factor contribution (pre-OPCs): 13 and 13.03 | factor contribution (stage 1 pre-OPCs): 16.9 | factor contribution ([1]; optimized for maximum expression of PDGFRa at 853.4): 20.6 and 20.61 | factor contribution (OPCs [4]): 10 | factor contribution (OPCs [5]): 10
